Assay results from patent US9050345B2, “Pyrrolotriazines as potassium ion channel inhibitors” (BRISTOL-MYERS SQUIBB COMPANY, priority 2013, dated 2015).

target: T1, human KV 1.5 (IKur) (Homo sapiens, UniProt P22460); assay: block of IKur current in patch clamped L-929 cells expressing human Kv1.5; type: cell-based; conditions: L929, 0.3 μM; patch clamped mammalian L-929 cells stably expressing human Kv1.5; read-out: KV1_5% Inh L929 @0.3 μM
T1 construct: expressed in transfected cells
Excerpt: Assays to determine the degree of activity of a compound as an IKur inhibitor are well known in the art and are described in references such as J. Gen. Physiol., 101(4):513-543 (April 1993), and Br. J. Pharmacol., 115(2):267-274 (May 1995).
Synders, D. J. et al., “A rapidly activating and slowly inactivating potassium channel cloned from human heart: functional analysis after stable mammalian cell culture expression”, J. Gen. Physiol., 101:513-543 (1993). • 2. Zhou, Z. et al., “Block of HERG potassium channels by the antihistamine astemizole and its metabolites desmethylastemizole and norastemizole”, J. Cardiovasc. Electrophysiol., 10(6):836-843 (1999).

T1 sequence (P22460 whole entry): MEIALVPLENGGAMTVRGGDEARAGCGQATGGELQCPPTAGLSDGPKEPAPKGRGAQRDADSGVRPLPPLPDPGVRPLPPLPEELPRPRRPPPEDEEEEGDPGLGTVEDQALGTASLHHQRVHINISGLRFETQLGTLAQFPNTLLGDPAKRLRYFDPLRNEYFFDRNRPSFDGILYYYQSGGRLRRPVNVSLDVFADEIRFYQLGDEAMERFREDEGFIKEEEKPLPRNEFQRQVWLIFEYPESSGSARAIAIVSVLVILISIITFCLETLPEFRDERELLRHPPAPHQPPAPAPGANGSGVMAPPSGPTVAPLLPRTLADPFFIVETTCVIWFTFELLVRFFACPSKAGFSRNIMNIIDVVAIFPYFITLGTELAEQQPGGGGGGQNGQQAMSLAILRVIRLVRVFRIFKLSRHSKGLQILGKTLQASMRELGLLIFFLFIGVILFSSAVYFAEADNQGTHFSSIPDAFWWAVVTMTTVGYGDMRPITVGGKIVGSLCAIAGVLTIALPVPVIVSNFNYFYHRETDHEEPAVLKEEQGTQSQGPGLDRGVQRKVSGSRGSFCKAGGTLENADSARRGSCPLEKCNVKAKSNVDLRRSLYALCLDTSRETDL

SMILES | inhibition at 0.3 µM [%]
NC(=O)c1ccc(-c2nc(NCc3ccccc3)c3c(-c4ccccc4)ccn3n2)cn1 [Example 81, 5-(4-(benzylamino)-5-phenylpyrrolo [1,2-f][1,2,4]triazin-2-yl) picolinamide] | 97
N#Cc1ccc(-c2nc(NCc3ccccn3)c3c(-c4ccccc4)ccn3n2)cc1 [Example 67, 4-(5-phenyl-4-(pyridin-2-ylmethylamino)pyrrolo [1,2-f][1,2,4]triazin-2-yl)benzonitrile] | 97.8
CC(Nc1nc(-c2cncc(S(N)(=O)=O)c2)nn2ccc(-c3ccccc3)c12)c1ccc(F)cc1 (stereo not shown) [Example 76, 5-(4-(1-(4-fluorophenyl)ethylamino)-5-phenylpyrrolo[1,2-f] [1,2,4]triazin-2-yl) pyridine-3-sulfonamide] | 93.8
NC(=O)c1cncc(-c2nc(NCc3ccccc3)c3c(-c4ccccc4)ccn3n2)c1 [Example 13, 5-(4-(Benzylamino)-5-phenylpyrrolo[1,2-f][1,2,4]triazin-2-yl)nicotinamide] | 95.9
NC(=O)CCC(=O)Nc1cncc(-c2nc(NCc3ccccn3)c3c(-c4ccccc4)ccn3n2)c1 [Example 30, N1-(5-(5-Phenyl-4-(pyridin-2-ylmethylamino)pyrrolo[1,2-f][1,2,4]triazin-2-yl)pyridin-3-yl)succinamide] | 96.3
CS(=O)(=O)NC1(c2nc(NCc3ccccn3)c3c(-c4ccccc4)ccn3n2)CC1 [Example 37, N-(1-(5-Phenyl-4-(pyridin-2-ylmethylamino)pyrrolo[1,2-f][1,2,4]triazin-2-yl)cyclopropyl)methanesulfonamide] | 98.6
NS(=O)(=O)c1cncc(-c2nc(NCc3ccccc3)c3c(-c4ccccc4)ccn3n2)c1 [Example 1, 5-(4-(Benzylamino)-5-phenylpyrrolo[1,2-f][1,2,4]triazin-2-yl)pyridine-3-sulfonamide] | 96.5
O=C(O)CCc1cncc(-c2nc(NCc3ccccc3)c3c(-c4ccccc4)ccn3n2)c1 [Example 19, 3-(5-(4-(Benzylamino)-5-phenylpyrrolo[1,2-f][1,2,4]triazin-2-yl)pyridin-3-yl)propanoic acid] | 91.3
O=S(=O)(CCCCl)Nc1cncc(-c2nc(NCc3ccccn3)c3c(-c4ccccc4)ccn3n2)c1 [Example 63, 3-chloro-N-(5-(5-phenyl-4-(pyridin-2-ylmethylamino)pyrrolo[1,2-f][1,2,4]triazin-2-yl)pyridin-3-yl)propane-1-sulfonamide] | 97.8
COc1ccc(-c2nc(NCc3ccccn3)c3c(-c4ccc(OC)nc4)ccn3n2)cn1 [Example 7, 2,5-Bis(6-methoxypyridin-3-yl)-N-(pyridin-2-ylmethyl)pyrrolo[1,2-f][1,2,4]triazin-4-amine] | 97.8
CC(=O)Nc1ccccc1-c1nc(NCc2ccccn2)c2c(-c3ccccc3)ccn2n1 [Example 53, N-(2-(5-phenyl-4-(pyridin-2-ylmethylamino)pyrrolo[1,2-f][1,2,4]triazin-2-yl)phenyl) acetamide] | 98.1
CCOC(=O)CS(=O)(=O)Nc1cccc(-c2nc(NCc3ccccn3)c3c(-c4ccccc4)ccn3n2)c1 [Example 60, ethyl 2-(N-(3-(5-phenyl-4-(pyridin-2-ylmethylamino)pyrrolo[1,2-f][1,2,4]triazin-2-yl)phenyl)sulfamoyl)acetate] | 97.6

Continued, values first:

inhibition at 0.3 µM [%] | SMILES
82.9 | COc1ncc(-c2nc(NCc3cnccn3)c3c(-c4ccccc4)ccn3n2)cc1S(N)(=O)=O [Example 137, 2-methoxy-5-(5-phenyl-4-((pyrazin-2-ylmethyl)amino)pyrrolo [2,1-f][1,2,4]triazin-2-yl)pyridine-3-sulfonamide]
99.1 | COc1cccc(CNc2nc(-c3cncc(S(N)(=O)=O)c3)nn3ccc(-c4ccccc4)c23)n1 [Example 140, 5-(4-(((6-methoxypyridin-2-yl)methyl)amino)-5-phenylpyrrolo [2,1-f][1,2,4]triazin-2-yl)pyridine-3-sulfonamide]
88.7 | COc1ccc(CNC(=O)c2nc(NCc3ccccc3)c3c(-c4ccccc4)ccn3n2)c(OC)c1 [Example 125, 4-(benzylamino)-N-(2,4-dimethoxybenzyl)-5-phenylpyrrolo [1,2-f][1,2,4] triazine-2-carboxamide]
95.7 | NS(=O)(=O)c1cncc(-c2nc(NCc3ccccn3)c3c(-c4cccc(F)c4)ccn3n2)c1 [Example 104, 5-(5-(3-fluorophenyl)-4-(pyridin-2-ylmethylamino)pyrrolo[1,2-f][1,2,4]triazin-2-yl)pyridine-3-sulfonamide]
35.2 | NC(=O)c1ccccc1NC(=O)c1nc(NCc2ccccc2)c2c(-c3ccccc3)ccn2n1 [Example 114, 4-(benzylamino)-N-(2-carbamoylphenyl)-5-phenylpyrrolo [1,2-f][1,2,4] triazine-2-carboxamide]
97.1 | COc1ncc(-c2nc(NCc3nc(C)cs3)c3c(-c4ccccc4)ccn3n2)cc1S(N)(=O)=O [Example 175, 2-methoxy-5-(4-(((4-methylthiazol-2-yl)methyl)amino)-5-phenylpyrrolo [2,1-f][1,2,4]triazin-2-yl)pyridine-3-sulfonamide]
97.2 | Cc1csc(CNc2nc(-c3cncc(S(N)(=O)=O)c3)nn3ccc(-c4ccccc4)c23)n1 [Example 174, 5-(4-(((4-methylthiazol-2-yl)methyl)amino)-5-phenylpyrrolo [2,1-f][1,2,4]triazin-2-yl)pyridine-3-sulfonamide]
83.9 | NS(=O)(=O)c1cncc(-c2nc(NCC3CCCCC3)c3c(-c4ccccc4)ccn3n2)c1 [Example 131, 5-(4-((cyclohexylmethyl)amino)-5-phenylpyrrolo [2,1-f][1,2,4]triazin-2-yl)pyridine-3-sulfonamide]
41 | COc1ncc(-c2nc(NCc3ccccc3)c3c(-c4ccccc4)ccn3n2)cc1S(=O)(=O)NC(C)(C)C [Example 93, 5-(4-(benzylamino)-5-phenylpyrrolo [1,2-f][1,2,4]triazin-2-yl)-N-tert-butyl-2-methoxypyridine-3-sulfonamide]
98.5 | c1ccc(-c2ccn3nc(-c4cc[nH]n4)nc(NCc4ccccn4)c23)cc1 [Example 126, 5-pheny 1-2-(1H-pyrazol-3-yl)-N-(pyridin-2-ylmethyl) pyrrolo[1,2-f][1,2,4] triazin-4-amine]
96.2 | NS(=O)(=O)c1cncc(-c2nc(NCc3ncccc3F)c3c(-c4ccccc4)ccn3n2)c1 [Example 138, 5-(4-(((3-fluoropyridin-2-yl)methyl)amino)-5-phenylpyrrolo [2,1-f][1,2,4]triazin-2-yl) pyridine-3-sulfonamide]
99.3 | NS(=O)(=O)c1cncc(-c2nc(NCc3ccccn3)c3c(-c4ccccc4)ccn3n2)n1 [Example 127, 6-(5-phenyl-4-(pyridin-2-ylmethylamino)pyrrolo[1,2-f][1,2,4]triazin-2-yl)pyrazine-2-sulfonamide]
79.9 | NS(=O)(=O)c1cnc(O)c(-c2nc(NCc3ccccn3)c3c(-c4ccccc4)ccn3n2)c1 [Example 153, 6-hydroxy-5-(5-phenyl-4-((pyridin-2-ylmethyl)amino)pyrrolo [2,1-f][1,2,4]triazin-2-yl)pyridine-3-sulfonamide]
